{"source": "patent US20120109286A1", "about": "“ANTIMICROBIAL COATINGS” (priority 2009, published 2012)", "conditions_in_all_cases": "24 h at 37° C.", "key": {"[1]": {"test_system": "M. luteus", "assay": "Zone of inhibition around monomer pellets or powder", "format": "cell-based, Micrococcus luteus", "description": "(§1) ZSB powder was used to show antimicrobial efficacy."}, "[2]": {"test_system": "P. aeruginosa", "assay": "Zone of inhibition around monomer pellets", "format": "cell-based, Pseudomonas aeruginosa"}, "[3]": {"test_system": "S. aureus", "assay": "Zone of inhibition around monomer pellets or powder", "format": "cell-based, Staphylococcus aureus", "description": "as §1"}}, "data": [{"smiles": "O=C1C=CC(=O)[N]1[Ag]([P+](c1ccccc1)(c1ccccc1)c1ccccc1)[P+](c1ccccc1)(c1ccccc1)c1ccccc1", "note": "[PSSM, Phosphine Stabilised Silver Maleimide]", "values": [{"measurement": "zone of inhibition", "setting": "[1]", "result": "sharp ring of inhibition"}, {"measurement": "zone of inhibition", "setting": "[2]", "result": "more blurred inhibition zones"}, {"measurement": "zone of inhibition", "setting": "[3]", "result": "sharp ring of inhibition"}]}]}
